Active and inactive are the calls of the source. The calls are words filed in the database; no cut-off is given here.
Assays:
[1] = tested on: Human immunodeficiency virus 1; assay: Antiviral activity against HIV1 3B expressing wild type reverse transcriptase infected in human MT4 cells assessed as protection against virus-induced cytopathic effect after 5 days by MTT assay; format: functional, organism-based; settings: Human immunodeficiency virus 1, 3B, MT4, 120 h
[2] = tested on: Human immunodeficiency virus 1; assay: Antiviral activity against HIV1 RES056 expressing reverse transcriptase K103N/Y181C double mutant infected in human MT4 cells assessed as protection against virus-induced cytopathic effect after 5 days by MTT assay; format: functional, organism-based; settings: Human immunodeficiency virus 1, RES056, MT4, 120 h
[3] = Cytotoxicity against human MT4 cells after 5 days by MTT assay; format: cell-based
[4] = Selectivity index, ratio of CC50 for human MT4 cells to EC50 for HIV1 3B expressing wild type reverse transcriptase infected in human MT4 cells; format: toxicity, cell-based; settings: read-out: Ratio CC50/EC50
[5] = Selectivity index, ratio of CC50 for human MT4 cells to EC50 for HIV1 RES056 expressing reverse transcriptase K103N/Y181C double mutant; format: toxicity; settings: read-out: Ratio CC50/EC50
[6] = tested on: Human immunodeficiency virus 1; assay: Resistance index, ratio of EC50 for HIV1 RES056 harboring K103N/Y181C double mutant infected in human MT4 cells to EC50 for wild-type HIV1 3B infected in human MT4 cells; format: functional
[7] = target: Human immunodeficiency virus type 1 reverse transcriptase (Human immunodeficiency virus 1, UniProt Q72547); assay: Inhibition of recombinant wild-type HIV1 reverse transcriptase p66/p51 RNA-dependent DNA polymerase activity assessed as reduction in biotin-dUTP incorporation using poly(rA)/oligo(dT)16 as template/primer after 40 mins by PicoGreen dye based spectrofluorometric analysis
[8] = Prodrug conversion in human plasma assessed as RDEA427 formation by measuring remaining prodrug levels at 100 uM measured after 10 mins by LC-MS/MS analysis; format: ADME, cell-free
[9] = Prodrug conversion in human plasma assessed as RDEA427 formation by measuring remaining prodrug levels at 100 uM measured after 30 mins by LC-MS/MS analysis; format: ADME, cell-free; settings: 0.5 h
[10] = Prodrug conversion in human plasma assessed as RDEA427 formation by measuring remaining prodrug levels at 100 uM measured after 60 mins by LC-MS/MS analysis; format: ADME, cell-free; settings: 1 h
[11] = Prodrug conversion in human plasma assessed as RDEA427 formation by measuring remaining prodrug levels at 100 uM measured after 120 mins by LC-MS/MS analysis; format: ADME, cell-free; settings: 2 h
[12] = Prodrug conversion in human plasma assessed as RDEA427 formation at 100 uM by LC-MS/MS analysis; format: ADME, cell-free; settings: TDE = time-dependent effect
[13] = tested on: Human immunodeficiency virus 2; assay: Antiviral activity against HIV2 ROD infected in human MT4 cells after 5 days by MTT assay; format: functional, organism-based; settings: ISOLATE ROD
[14] = Metabolic stability in human plasma assessed as parent compound remaining at 100 uM after 30 mins by LC-MS/MS analysis; format: ADME, cell-free; settings: read-out: Stability
[15] = Metabolic stability in human plasma assessed as parent compound remaining at 100 uM after 10 mins by LC-MS/MS analysis; format: ADME, cell-free; settings: read-out: Stability
[16] = Metabolic stability in human plasma assessed as parent compound remaining at 100 uM after 60 mins by LC-MS/MS analysis; format: ADME, cell-free; settings: read-out: Stability
[17] = Metabolic stability in human plasma assessed as parent compound remaining at 100 uM after 120 mins by LC-MS/MS analysis; format: ADME, cell-free; settings: read-out: Stability

| remaining at 0.5 h, 100 µM [14] [%] | remaining at 10 min, 100 µM [15] [%] | remaining at 1 h, 100 µM [16] [%] | remaining at 2 h, 100 µM [17] [%] | Compound | EC50 [1] [nM] | EC50 [2] [nM] | CC50 at 120 h [3] [nM] | selectivity ratio [4] | selectivity ratio [5] | Ratio EC50 [6] | IC50 [7] [nM] | Stability [8] [%] | Stability [9] [%] | Stability [10] [%] | Stability [11] [%] | Drug metabolism [12] | Activity [13] |
| --- | --- | --- | --- | --- | --- | --- | --- | --- | --- | --- | --- | --- | --- | --- | --- | --- | --- |
| – | – | – | – | Cc1cc(C#N)cc(C)c1Oc1nc(Nc2ccc(C#N)cc2)nc2c1ccn2COC(=O)OC(C)C | 5.5 | 150 | 1050 | 190 | 7 | 27.3 | 264 | 87.8 | 73.9 | 53.3 | 56.4 | Tde | inactive |
| – | – | – | – | Cc1cc(C#N)cc(C)c1Oc1nc(Nc2ccc(C#N)cc2)nc2[nH]ccc12 | 2.9 | 56 | ≥ 1240 | ≥ 425 | ≥ 22 | 19.1 | 16 | – | – | – | – | – | – |
| – | – | – | – | Cc1ccnc2c1NC(=O)c1cccnc1N2C1CC1 [NEVIRAPINE] | 440 | > 15000 | > 15000 | > 34 | 1 | – | – | – | – | – | – | – | – |
| 19.4 | 54.8 | 5.1 | 0.5 | CC(C)[N+](C)(CCOC(=O)C1c2ccccc2Oc2ccccc21)C(C)C [PROPANTHELINE] | – | – | – | – | – | – | – | – | – | – | – | – | – |
| – | – | – | – | Cc1cc(C#N)cc(C)c1Oc1nc(Nc2ccc(C#N)cc2)nc(N)c1Br [ETRAVIRINE] | 3.9 | 47 | > 4590 | > 1170 | > 97 | 12 | – | – | – | – | – | – | – |
| – | – | – | – | O=C1Nc2ccc(Cl)cc2[C@@](C#CC2CC2)(C(F)(F)F)O1 [EFAVIRENZ] | 4.8 | 140 | > 6340 | > 1320 | > 44 | 30 | – | – | – | – | – | – | – |

Source: ChEMBL document CHEMBL4219140, “First discovery of a potential carbonate prodrug of NNRTI drug candidate RDEA427 with submicromolar inhibitory activity against HIV-1 K103N/Y181C double mutant strain” (Bioorg Med Chem Lett, 2018)
